One may read the Kd as the constant that tells how readily two partners part at equilibrium.

Activity calls are given as the source filed them. No rule for the calls is given here.

The results in this text go back to PubChem BioAssay AID1648 (Sanford-Burnham Center for Chemical Genomics, 2009).

For this experiment, the target named is Serine/threonine-protein kinase mTOR (Homo sapiens) (UniProt P42345). Nature of the experiment: binders of mTOR FRB domain, biophysical, NMR (AID 1648). The note with it: NMR binding to FRB domain, chemical shift.
Serine/threonine-protein kinase mTOR (Homo sapiens), sequence (P42345 2015-2114): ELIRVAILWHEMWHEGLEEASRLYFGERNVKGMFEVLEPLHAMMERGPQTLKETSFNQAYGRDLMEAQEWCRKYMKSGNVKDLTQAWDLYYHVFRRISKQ
Turning to `COc1cc2c(cc1OC)[C@@]13CCN4CC5=CCOC6CC(=O)N2C1[C@H]6[C@H]5C[C@H]43` (stereo not given in full), the Kd is > 4 mM (inactive). Under `Cc1ccc(S(=O)(=O)CC(=O)N(C)C)cc1` stands > 4 mM (inactive). Under `NC(=O)c1cccc2c1OCCO2` stands > 4 mM (inactive). For `Nc1ccc(Cc2ccncc2)cc1` the value was > 4 mM (inactive); for `Nc1ccc(-n2cncn2)cc1`, > 4 mM (inactive); for `CO[C@H]1[C@@H](O)[C@@H](C)O[C@H](O[C@H]2CCC3(C)C4CCC5(C)[C@@H](C6=CC(=O)OC6)CC[C@]5(O)[C@@H]4CC[C@]3(O)C2)[C@@H]1O` (stereo not given in full), > 4 mM (inactive).

In the case of `Cc1cc(O)c(NC(=O)c2ccco2)cc1C`, the Kd is > 4 mM (inactive).

As to `O=C(O)C(O)C(O)C(O)C(O)C(=O)O` (stereo not given), the Kd was > 4 mM (inactive).

In the case of `CN(C)CC(O)C1CCOC(C)(C)C1` (stereo not given), the Kd was > 4 mM (inactive).

Turning to `CS(=O)(=O)NN=C1CCCCC1`, the Kd is > 4 mM (inactive).

Take `CN(c1ccccc1C(=O)N1CCOCC1)S(C)(=O)=O`: the Kd was > 4 mM (inactive). For `O=C(c1cc2ccccc2o1)N1CCCCCC1` the value was > 4 mM (inactive); for `Cc1c(N=Cc2ccco2)c(=O)n(-c2ccccc2)n1C`, > 4 mM (inactive). Consider `Cc1noc(C)c1C(=O)Nc1ccccn1`, for which the Kd was > 4 mM (inactive). `Cc1cc(C(=O)NCc2cccs2)cs1`: the Kd was > 4 mM (inactive).

Regarding `O=C(Nc1nc2c(s1)CCCC2)c1cccnc1`, the Kd was > 4 mM (inactive). Under `COc1c2ccoc2cc2oc(=O)ccc12` stands > 4 mM (inactive). Consider `O=C1CSC(=O)N1CN1CCCC1`, for which the Kd was > 4 mM (inactive). As for `CC(C)(O)[C@@H]1Cc2cc3ccc(=O)oc3cc2O1`, the Kd is > 4 mM (inactive).

For the compound `N#Cc1nc(-c2cccs2)oc1N1CCOCC1`, the Kd was > 4 mM (inactive).

Consider `CCSc1nc(=S)n(CC)c(C)c1C(C)=O`, for which the Kd is > 4 mM (inactive). For `O=C(NC1CCS(=O)(=O)C1)C1CCCCC1` (stereo not given) the value was > 4 mM (inactive). For `C=C1CCC2[C@](C)(CO)[C@H](O)CC[C@@]2(C)[C@@H]1C/C=C1/C(=O)OC[C@H]1O` (stereo not given in full) the value was > 4 mM (inactive). Take `Cc1c(N=CN2CCOCC2)c(=O)n(C)c(=O)n1C`: the Kd is > 4 mM (inactive).

As for `Cc1nnc(N2CCN(c3ccccc3)CC2)[nH]c1=O`, the Kd was > 4 mM (inactive). On to `NC(=O)C1CCCN1S(=O)(=O)c1ccc(F)cc1` (stereo not given), for which the Kd was > 4 mM (inactive). With `COC(=O)C1=CCCN(C)C1`, the Kd is > 4 mM (inactive).

Regarding `Cc1ccc(-c2nnn(CC(=O)O)n2)cc1`, the Kd was > 4 mM (inactive).

As for `C(=N\c1ncn[nH]1)/c1cccs1`, the Kd was > 4 mM (inactive). Consider `Cc1cc(C(=O)NCc2cccs2)c(C)o1`, for which the Kd was > 4 mM (inactive). Under `CN1C(=O)/C(=C\c2ccc[nH]2)SC1=S` stands > 4 mM (inactive); under `O=C1NC(=O)C(=Cc2cccs2)C(=O)N1`, > 4 mM (inactive).

Turning to `COCC(=O)Nc1cccc(Br)c1`, the Kd was > 4 mM (inactive). Under `COc1cc2c(cc1O)CC1c3c(cc(O)c(OC)c3-2)CCN1C` (stereo not given) stands > 4 mM (inactive); under `CN1CCN(C2CCN(Cc3ccccc3)CC2)CC1`, > 4 mM (inactive); under `Cc1nn2c(=O)/c(=C/c3cccc(F)c3)sc2nc1=O`, > 4 mM (inactive). Regarding `Cc1ncoc1C(=O)Nc1ccccc1C(N)=O`, the Kd is > 4 mM (inactive). Regarding `CNC(=O)c1ccc([N+](=O)[O-])cc1Cl`, the Kd was > 4 mM (inactive). `NC(=O)c1ccc(C(N)=O)cc1`: the Kd is > 4 mM (inactive). Regarding `Nc1ccc2c(c1)OCCO2`, the Kd was > 4 mM (inactive).

Take `O=C(c1ccc2c(c1)OCO2)N1CCC2(CC1)OCCO2`: the Kd was > 4 mM (inactive). For `COCCn1cnc2cc(C)c(C)cc21` the value was > 4 mM (inactive); for `CC1=C2C(=CO[C@H](C)[C@H]2C)C(=O)C(C(=O)O)=C1O`, > 4 mM (inactive). Under `O=C(Nc1nccs1)c1cccnc1` stands > 4 mM (inactive); under `C=C[C@@]1(C)CC(=O)[C@@]2(O)[C@](C)(O1)[C@@H](OC(C)=O)[C@@H](O)C1C(C)(C)CC[C@H](O)[C@@]12C` (stereo not given in full), > 4 mM (inactive). In the case of `c1ccc(-n2nnnc2-n2cnc3ccccc32)cc1`, the Kd is > 4 mM (inactive). For the compound `Cc1ccc(Nc2nnns2)cc1C`, the Kd is > 4 mM (inactive). For `C=C1C[C@]23C[C@@]1(O)CC[C@H]2[C@@]12C=C[C@H](O)C(C)(C(=O)O1)[C@H]2[C@@H]3C(=O)O` the value was > 4 mM (inactive); for `CC(=O)c1cccc(N=C2NC(=O)CS2)c1`, > 4 mM (inactive). Consider `c1ccc(-c2nnc3sc(-c4ccncc4)nn23)cc1`, for which the Kd is > 4 mM (inactive). For `COC(=O)C[C@H]1C2(C)CC34OC5(C)O[C@@]6([C@H](OC(C)=O)C(OC(C)=O)[C@]7(C)C(/C(=C(/O)C(C)C)C(=O)O[C@H]7c7ccoc7)[C@@]6(O5)[C@H](OC(C)=O)[C@@]3(O)C2OC(=O)C(C)C)[C@]14C` (stereo not given in full) the value was > 4 mM (inactive). For `NS(=O)(=O)c1ccc2c3c(cccc13)C(=O)N2` the value was > 4 mM (inactive).

Turning to `COc1ccc2c(c1OC)C(=O)O[C@H]2[C@H]1c2cc3c(cc2CCN1C)OCO3`, the Kd was > 4 mM (inactive). For `O=C(/C=C(\O)c1ccccc1)c1ccccc1O`, the Kd was > 4 mM (inactive). For the compound `O=C(O)Cn1cc(C(F)(F)F)ccc1=O`, the Kd is > 4 mM (inactive). Under `C[C@@H]1O[C@@H](O[C@H]2[C@@H](Oc3cc(O)c4c(c3)O[C@H](c3ccc(O)cc3)CC4=O)O[C@H](CO)[C@@H](O)[C@@H]2O)[C@H](O)[C@H](O)[C@H]1O` stands > 4 mM (inactive); under `NCc1ccc(S(=O)(=O)O)cc1`, > 4 mM (inactive). On to `O=C1CC(=O)N2N=C(c3ccccc3)SC2=N1`, for which the Kd is > 4 mM (inactive). For `Cc1cc(C)cc(C(=O)N2CCC(C(N)=O)CC2)c1` the value was > 4 mM (inactive); for `CC(C)(O)P(C)(=O)c1ccccc1` (stereo not given), > 4 mM (inactive). On to `O=C(Cc1c(F)cccc1Cl)Nc1ccon1`, for which the Kd was > 4 mM (inactive).

`NC(c1ccccc1)c1ccccn1` (stereo not given): the Kd is > 4 mM (inactive). Under `O=C(O)c1csc(-c2cccnc2)n1` stands > 4 mM (inactive); under `O=C(O)c1ccc2c(c1)CCO2`, > 4 mM (inactive). For `Cc1cc(=O)cc(C)n1-c1ccccc1N` the value was > 4 mM (inactive). Under `CCOC(=O)CSc1nnc(C)c(=O)[nH]1` stands > 4 mM (inactive); under `NC1=NC(=O)/C(=C\c2cccnc2)S1`, > 4 mM (inactive); under `[O-][n+]1onc2c1CCc1c-2nn(-c2ccccc2)[n+]1[O-]`, > 4 mM (inactive).

Regarding `O=C(O)c1ccc(CN2CCOCC2)cc1`, the Kd is > 4 mM (inactive). Take `O=c1[nH]nc(Cc2ccccn2)c2ccccc12`: the Kd was > 4 mM (inactive). As for `Nc1cccc(S(=O)(=O)N2CCCCC2)c1`, the Kd is > 4 mM (inactive).

`COc1nc(C)ccc1-c1noc(-c2ccco2)n1`: the Kd is > 4 mM (inactive). Take `O=C(O)/C=C/c1ccc(O)c(O)c1`: the Kd is > 4 mM (inactive). With `Cc1nc2ccccc2c(=O)n1NC(=O)C1CCCCC1`, the Kd is > 4 mM (inactive).

For the compound `CC(=O)C1=C(O)C(=O)NC1c1ccccc1` (stereo not given), the Kd was > 4 mM (inactive).

Consider `O=C(O)CNC(=O)c1ccccc1`, for which the Kd is > 4 mM (inactive).

For the compound `CC1=CCc2c(cc3oc(C)cc(=O)c3c2O)OC1`, the Kd was > 4 mM (inactive). Consider `CC(=O)Nc1ccc2c(c1)CCC2=O`, for which the Kd was > 4 mM (inactive). Under `COc1cc(OC)c(OC)cc1C=O` stands > 4 mM (inactive); under `Cc1ccc(NC(=O)N2CCC(C(N)=O)CC2)cc1`, > 4 mM (inactive). Under `CC(=O)Nc1ccc(N(C)C(C)=O)cc1` stands > 4 mM (inactive); under `CC1(C)CC2C1CC[C@]1(C)CCC3C(C(=O)O)CC(=O)O[C@@]32C1` (stereo not given in full), > 4 mM (inactive). Under `Cc1cccnc1NC1=NCC(C)S1` (stereo not given) stands > 4 mM (inactive). Take `O=C(Nc1ccc2c(c1)OCCO2)c1c(F)cccc1F`: the Kd was > 4 mM (inactive).

Take `CC(=O)Nc1cccc(N(C)S(C)(=O)=O)c1`: the Kd is > 4 mM (inactive). For `COc1cc2c(cc1O)[C@@H](Cc1ccc(O)cc1)[N+](C)(C)CC2` the value was > 4 mM (inactive); for `C[n+]1ccn(C/C(N)=N/O)c1`, > 4 mM (inactive); for `COC(=O)C[C@@H]1C2(C)C(=O)[C@@H](CC3=C4C=C(OC)O[C@@H](c5ccoc5)[C@]4(C)CCC32)[C@H](O)C1(C)C` (stereo not given in full), > 4 mM (inactive). For `OCCNC(=S)Nc1ccc(F)cc1` the value was > 4 mM (inactive); for `Nc1nc2ccc(S(N)(=O)=O)cc2s1`, > 4 mM (inactive); for `Cc1cccc(NC(=O)NC(N)=O)c1`, > 4 mM (inactive). Under `NS(=O)(=O)c1ccc(NC(=O)C2CC2)cc1` stands > 4 mM (inactive). As for `Nc1cc(F)nc(F)n1`, the Kd was > 4 mM (inactive).

Regarding `O=c1c2ccccc2oc2ccc(O)cc12`, the Kd was > 4 mM (inactive). Regarding `Nc1ccccc1N=C1CNC(=O)C1`, the Kd was > 4 mM (inactive).

Turning to `Cc1cc(C)n2c(SCc3cccs3)nnc2n1`, the Kd was > 4 mM (inactive).

Regarding `NC(=O)CSc1nnc(-c2cccnc2)o1`, the Kd was > 4 mM (inactive). Regarding `O=C(O)CNCC(O)Cn1c2ccccc2c2ccccc21` (stereo not given), the Kd was > 4 mM (inactive). With `Cc1c(C)c2c(c(C)c1O)CCC(C)(CCCC(C)CCCC(C)CCCC(C)C)O2` (stereo not given), the Kd is > 4 mM (inactive). Under `CC(C)Nc1ncnc2c1nnn2C` stands > 4 mM (inactive).
